Laboratory results published in patent US20060111342A1, “Insecticidal tricyclic derivatives” (priority 2002, published 2006).

How the values were obtained:
[1] = tested on: cotton aphid (Aphis gossypii); assay: Cotton aphid mortality on sprayed cotton plants, assessed after 24 hours (Table 2); assay type: in vivo; conditions: read-out: Mortality of Cotton Aphid On Cotton Plants: More Than 75% Mortality (A)
Experimental: (§1) The compounds of formula I useful in the present invention were tested for insecticidal activity by observing mortality in a population of cotton aphid (Aphis gossypii) on treated cotton plants caused by a test compound, when compared to like populations of cotton aphid on untreated plants. These tests were conducted in the following manner:
For each rate of application of test compound, two seven-to-ten days old cotton seedlings (Gossypium hirsutium) grown in 7.6 cm diameter pots were selected for the test. Each test plant was infested with about 120 adult cotton aphids by placing onto each test plant cuttings of leaves from cotton plants grown in a cotton aphid colony. Once infested, the test plants were maintained for up to about 12 hours to allow complete translocation of the aphids onto the test plant. A solution comprising 1000 part per million (ppm) of each test compound was prepared by dissolving 10 milligrams of the test compound in 1 mL of acetone. Each solution was then diluted with 9 mL of a solution of 0.03 mL of polyoxyethylene(10) isooctylphenyl ether in 100 mL of water. […] After this time, each plant was assessed for percent mortality caused by the test compound when compared to the population of aphids that was infested onto the test plants prior to treatment with test compound. […]

[2] = tested on: cotton aphid (Aphis gossypii); assay: Cotton aphid test in the same manner, more definitive percent mortality at selected rates and exposure times (Table 3); assay type: in vivo; conditions: for Percent Mortality of Cotton Aphid on Cotton Plants: 72 hours exposure
Experimental: as §1
For each rate of application of test compound, two seven-to-ten days old cotton seedlings (Gossypium hirsutium) grown in 7.6 cm diameter pots were selected for the test. Each test plant was infested with about 120 adult cotton aphids by placing onto each test plant cuttings of leaves from cotton plants grown in a cotton aphid colony. Once infested, the test plants were maintained for up to about 12 hours to allow complete translocation of the aphids onto the test plant. A solution comprising 1000 part per million (ppm) of each test compound was prepared by dissolving 10 milligrams of the test compound in 1 mL of acetone. Each solution was then diluted with 9 mL of a solution of 0.03 mL of polyoxyethylene(10) isooctylphenyl ether in 100 mL of water. About 2.5 mL of solution of each test compound was needed to spray each replicate of test plant (5 mL total for each test compound). If needed, the solution of 1000 ppm of test compound was serially diluted with a solution of 10% acetone and 300 ppm of polyoxyethylene(10) isooctylphenyl ether in water to provide solutions of each test compound for lower rates of application, for example, 300 ppm, 100 ppm, 30 ppm, or 10 ppm. Each replicate of test plant was sprayed with the solutions of test compound until run-off on both the upper and lower surfaces of the leaves. All the test plants were sprayed using a DeVilbus Atomizer Model 152 (Sunrise Medical, Carlsbad, Calif.) at a pressure of about 0.63-0.74 kilogram per square centimeter from a distance of about 30.5 centimeters from the test plants. For comparison purposes, a solution of a standard, such as amitraz or demethylchlordimeform (DCDM), prepared in a manner analogous to that set forth above, as well as a solution of 10% acetone and 300 ppm of polyoxyethylene(10) isooctylphenyl ether in water containing no test compound were also sprayed onto test plants. Upon completion of spraying the solutions of test compound, the solution of standard, and the solution containing no test compound, the plants were allowed to dry. […] After this time, each plant was assessed for percent mortality caused by the test compound when compared to the population of aphids that was infested onto the test plants prior to treatment with test compound. […] If there was 75% mortality or greater of the cotton aphid, a test compound was designated as being more insecticidally active (A).
In a test conducted in the same manner as set forth above, certain compounds of formula I were tested to determine a more definitive percent mortality of cotton aphid.

tobacco hornworm = conditions: in vivo; cited from earlier work

In the case of CN1CCC(=C2c3ccccc3Oc3ccccc32)CC1 [Compound 8, 9-(1-methyl-4-piperidylidene)xanthene], the mortality at 100 ppm [1] is reported as greater than 75% and the mortality at 100 ppm ([2]; Aphis gossypii, 96 h, read-out: Percent Mortality of Cotton Aphid on Cotton Plants) is reported as 88%.

In the case of COc1ccc2c(c1)N(CCCN(C)C)c1ccccc1S2 [Compound 205], the “Percent Mortality of Cotton Aphid on Cotton Plants” value (from here on “Percent Mortality of Cotton Aphid”) ([2]; 500 ppm) is reported as 40%.

In the case of CN1CCN(CCCN2c3ccccc3Sc3ccc(C(F)(F)F)cc32)CC1.Cl.Cl [Compound 207], the “Percent Mortality of Cotton Aphid” value ([2]; 1000 ppm) is reported as 25%.

For Cl.Cl.OCCN1CCN(CCCN2c3ccccc3Sc3ccc(C(F)(F)F)cc32)CC1 [Compound 208], the “Percent Mortality of Cotton Aphid” value ([2]; 500 ppm) was 43%.

In the case of CNCCCN1c2ccccc2CCc2ccccc21 [Desipramine, desipramine], the “anti-feeding activity against tobacco hornworm” value (tobacco hornworm) is given as “anti-feeding activity”.

For CN(C)CCC=C1c2ccccc2CCc2ccccc21 [amitriptyline], the “anti-feeding activity against tobacco hornworm” value (tobacco hornworm) is given as “anti-feeding activity”.
